Assay results published in patent publication US8080579B2, “Compositions and methods for treatment of inflammatory bowel disease” (The Regents of The University of Michigan, priority 2005, dated 2011).

How the values were obtained:
TNF-α = experiment: IEL TNF-α mRNA by RT-PCR, short bowel syndrome model; assay type: in vivo; settings: Sham operated mice, enalaprilat 0.6 mg/kg/day i.p., 7 days
Experimental: (§1) Short Bowel Syndrome Model: A 70% mid-small bowel resection was performed (i.e. bowel between 3.5 cm distal to the ligament of Treitz and 3.5 cm proximal to the ileocecal valve), followed by an end-to-end jejuno-ileal anastomosis with 7-0 monofilament, absorbable suture. Postoperatively a subcutaneous bolus of 3 ml 0.9% saline solution was given to maintain hydration status.
(§2) Sham operation: Mid-small bowel was transsected and re-anastomosed without bowel-resection.
(§3) IEL purification: Isolation of purified IEL from EC was performed by direct magnetic separation. Magnetic beads conjugated with antibody to CD45 (pan-lymphoid marker) were used to segregate IEL from EC (BioMag SelectaPure Anti-Mouse CD 45R Antibody Particles, Polyscience Inc., Warrington, Pa.). […]
Reverse transcriptase polymerase chain reaction (RT-PCR): mRNA (poly-A positive) was reversed transcribed into cDNA following a standard protocol. […] Gel bands were analyzed by DNA sequencing to ensure the correct product. Kodak EDAS System (Rochester, N.Y.) was used for imaging and quantification. Results were expressed as the ratio of the investigated mRNA over the β-actin mRNA expression.
(§4) To further understand the relevance of ACE expression on EC apoptosis, ACE-inhibition was used. […] After 1 week, mice were killed, EC apoptotic rates assessed, and IEL mRNA and protein isolated.

[1] = tested on: angiotensin converting enzyme (ACE); experiment: IEL ACE mRNA by real time PCR, short bowel syndrome model; assay type: in vivo, mice; settings: enalaprilat 0.6 mg/kg/day i.p., 7 days
Experimental: as §1, §2
as §3, with “Pa.). Magnetic separation was performed twice to further deplete EC.” for “Pa.).”
Real time PCR: Real-time PCR was run to better quantify actual changes in ACE expression. cDNA was also used for real time PCR. The same primers for ACE and β-actin were used as for conventional PCR, SYBR Green I was utilized for fluorescence. […] Ct-values of ACE and β-actin were converted to numbers of cDNA copies, and results expressed as the ratio of ACE over β-actin expression.
as §4

[2] = tested on: angiotensin converting enzyme (ACE); experiment: IEL ACE protein by immunoblot, short bowel syndrome model; assay type: in vivo, mice; settings: enalaprilat 0.6 mg/kg/day i.p., 7 days
Experimental: as §1, §2, §3
Immunoblot analysis: Protein was extracted from isolated IEL and immunoblots performed by using a Bio-Rad protein assay kit (Bio-Rad Laboratories, Hercules, Calif.), with standard methods. […] Expression for β-actin was determined in the same fashion by re-probing membranes with purified anti-mouse β-actin (1:12000, Sigma-Aldrich, St. Louis, Mo.). Results are expressed as the ratio of ACE over β-actin protein expression.
as §4

[3] = tested on: intestinal epithelial cells; experiment: Epithelial cell proliferation (BrdU), short bowel syndrome model; assay type: in vivo, mice; settings: FIG. 11
Experimental: Epithelial cell proliferation: Mice were given a dose of bromodeoxyuridine (BrdU) 1 to 2 hours prior to sacrifice. Tissues harvested from the intestine were subsequently stained for BrdU as a marker of cellular proliferation.

IEL ACE mRNA (ratio of ACE-cDNA copies over β-actin-cDNA copies) ([1]; SBS mice): 0.63 ± 0.25 | IEL ACE mRNA (ratio of ACE-cDNA copies over β-actin-cDNA copies) ([1]; Sham operated mice): 0.66 ± 0.22 | IEL ACE protein (ratio of ACE over β-actin protein expression) ([2]; SBS mice): 0.14 ± 0.03 | IEL ACE protein (ratio of ACE over β-actin protein expression) ([2]; Sham operated mice): 0.13 ± 0.01
SMILES: C[C@H](N[C@@H](CCc1ccccc1)C(=O)O)C(=O)N1CCC[C@H]1C(=O)O [ACE-I, enalaprilat]
IEL TNF-α mRNA (ratio over β-actin mRNA) (TNF-α): 0.37 ± 0.07 | Epithelial cell proliferation [3]: increase significantly
